Here are results for 12 molecules from publication PMC12693182, “Synthesis and QSAR Studies of Claramine Derivatives, a New Class of Broad-Spectrum Antimicrobial Agents” (Molecules, 2025).

In brackets after ≈: the same amount, converted by molar mass.

The test system of experiment [1] is S. aureus 340. Put plainly: MIC, broth microdilution. In kind it is cell-based, Staphylococcus aureus. The following applies: Staphylococcus aureus, 340, 24 h. As for the experimental part: (§1) Antimicrobial activity of the compounds was studied by determination of minimal inhibitory concentrations (MIC) according to the NCCLS guidelines M7-A2 using the microbroth dilution methods. The bacteria strains were grown on trypticase soy agar (Becton Dickinson) at 37 °C for 24 h. Inocula were prepared in TCE (tryptone 0.1%, […], wt/vol) by ajusting the turbidity at 623 nm to obtain 1–3 10^5 CFU/mL.
(§2) Antimicrobial activities of the compounds were determined by using a broth microdilution method performed in sterile 96-well microplates. All compounds were solubilized in water at a concentration of 10 mM and were transferred to each microplate well in order to obtain a two-fold serial dilution in 100 µL of broth and 100 µL of inoculum containing 2–6 10^5 CFU of each bacterium were added to each well. Some wells were reserved for positive controls and inoculum viability.
A general note: In broth dilution the organism is exposed to a series of concentrations in liquid medium.

Experiment [2] concerns P. aeruginosa 1051575. Put plainly: MIC, broth microdilution. In kind it is cell-based, Pseudomonas aeruginosa. The settings on record: Pseudomonas aeruginosa, 1051575, 24 h, 24 h. As for the experimental part:
as §1, §2

The subject of experiment [3] is Chinese hamster Ovary cells (CHO-K1). Put plainly: Cytotoxicity assay (WST-1 / Neutral Red). The class given is cell-based. The settings on record: 24-h incubation; for IC50: Cricetulus griseus, 24 h. As for the experimental part:
The cytotoxic activities of compounds were assessed on Chinese hamster Ovary cells (CHO-K1) provided from ATCC-LGC Standards Sarl (Molsheim, France). Cells were maintained in Mc Coy’s 5A (CHO) medium supplemented with 10% bovine calf serum, 2 mM glutamine, and 100 U mL^−1/10 µg mL^−1 penicillin/streptomycin mixtures. For the cytotoxicity experiments, they were seeded in 96-well plates and incubated at 37 °C in humidified atmosphere containing 5% CO2 overnight, then concentrations of compounds were incorporated in triplicate cultures. After a 24-h incubation period at 37 °C, cells were submitted to three successive washes in phosphate buffer saline (PBS) and cell viability was evaluated by two different vital dyes: • i. A first set of cell cultures was incubated in PBS containing 10% WST-1 for 30 min at 37 °C, 5% CO2. Cell viability was evaluated by the assessment of WST-1 absorbance at 450 nm in a microplate spectrophotometer. • ii. A second set of cell cultures was placed into Neutral Red medium (50 μg mL^−1 Neutral Red in complete medium) and incubated for 3 h at 37 °C, 5% CO2. Then the Neutral Red medium was removed and the distaining solution (50% ethanol, 1% acetic acid, 49% distilled water; 50 µL per well) was added into the wells. The plates were shaken for 15–20 min at room temperature in the dark. Cell viability was evaluated by the assessment of absorbance at 540 nm in a microplate spectrophotometer.
Results were expressed as percentages of cell viability about the control (culture medium-only), which corresponded to 100% cell viability. Dose-response curves were calculated by non-linear regression analysis with TableCurve 2D software (V 5.0.1) (Systat Software Inc., San Jose, CA, USA). The Inhibitory Concentration 50% (IC50) was defined as the concentration of compounds that induced a 50% decrease of viable cells.
Background: Tetrazolium dyes change colour on reduction, which living cells bring about.

In experiment [4] the test system is S. aureus ATCC 25923. Nature of the experiment: MIC, broth microdilution. The settings on record: Staphylococcus aureus, ATCC25923, 24 h, ATCC strain. In kind it is cell-based, Staphylococcus aureus. As for the experimental part:
as §1, §2

The subject of experiment [5] is P. aeruginosa ATCC 27853. Put plainly: MIC, broth microdilution. The class given is cell-based, Pseudomonas aeruginosa. The following applies: Pseudomonas aeruginosa, ATCC27853, 24 h, ATCC strain. As for the experimental part: as §1, §2
Experiment [6] relates to S. intermedius 1051997. Put plainly: MIC, broth microdilution. In kind it is cell-based, Staphylococcus intermedius. The settings on record: Staphylococcus intermedius, 1051997, 24 h, 24 h. As for the experimental part: as §1, §2
For experiment [7], the system named is E. faecalis ATCC29212. Nature of the experiment: MIC, broth microdilution. The class given is cell-based, Enterococccus faecalis. The settings on record: Enterococcus faecalis, ATCC29212, 24 h, ATCC strain, read-out: MIC E. faecalis 29212. As for the experimental part:
as §1, §2

The subject of experiment [8] is E. coli ATCC 25922. Nature of the experiment: MIC, broth microdilution. In kind it is cell-based, Escherichia coli. The following applies: Escherichia coli, ATCC25922, 24 h, ATCC strain. As for the experimental part:
as §1, §2

Experiment [9] deals with E. coli 1956. Nature of the experiment: MIC, broth microdilution. In kind it is cell-based, Escherichia coli. The settings on record: Escherichia coli, 1956, 24 h. As for the experimental part:
as §1, §2

`CC(C)OC(=O)CCC(C)C1CCC2C3CCC4CC(NCCCNCCCN)CCC4(C)C3CC(O)C12C` (stereo not shown) [Claramine A04]: the MIC (usually the lowest concentration found to suppress growth) is 3 µg/mL (≈ 5.48 µM) in experiment [1] and 14 µg/mL (≈ 25.6 µM) in experiment [2]. Besides, the half-maximal inhibitory concentration (IC50) – broadly, the concentration that inhibits the measured activity by half – in [3] turned out to be 57 µg/mL (≈ 104 µM).
The molecule `CCOC(=O)CCC(C)C1CCC2C3CCC4CC(NCCCNCCCCNCCCN)CCC4(C)C3CC(O)C12C` (stereo not shown) [Claramine A20] yielded an IC50 in experiment [3] of 25 µg/mL (≈ 41.3 µM).
The molecule `CCCCOC(=O)CCC(C)C1CCC2C3CCC4CC(NCCCNCCCCNCCCN)CCC4(C)C3CC(O)C12C` (stereo not shown) [Claramine A21] had an IC50 in experiment [3] of 4 µg/mL (≈ 6.32 µM).
Molecule `CC(CCC(=O)OC(C)(C)C)C1CCC2C3CCC4CC(NCCCNCCCCNCCCN)CCC4(C)C3CC(O)C12C` (stereo not shown) [Claramine A22] displayed an MIC in experiment [1] below 4 µg/mL. In addition, in experiment [3], the “IC50 CHO” value amounted to 38 µg/mL (≈ 60 µM) and the half-maximal inhibitory concentration (IC50) was above 35 µg/mL.
Turning to `CC(CCC(=O)OCC(F)(F)F)C1CCC2C3CCC4CC(NCCCNCCCCNCCCN)CCC4(C)C3CC(O)C12C` (stereo not shown) [Claramine A24], the half-maximal inhibitory concentration (IC50) in [3] was 76 µg/mL (≈ 115 µM).
Still for that read-out and setting: the result for `CC(CCC(=O)OC(C(F)(F)F)C(F)(F)F)C1CCC2C3CCC4CC(NCCCNCCCCNCCCN)CCC4(C)C3CC(O)C12C` (stereo not shown) [Claramine A25] reads 4 µg/mL (≈ 5.5 µM).
For the molecule `CC(C)OC(=O)CCC(C)C1CCC2C3CCC4CC(NCCCN5CCN(CCCN)CC5)CCC4(C)C3CC(O)C12C` (stereo not shown) [Claramine A26], the minimum inhibitory concentration (MIC) in experiment [1] and in experiment [2] was 62 µg/mL (≈ 100 µM) throughout. The half-inhibitory concentration (IC50) in [3] is 160 µg/mL (≈ 259 µM).
Turning to `CC(C)OC(=O)CCC(C)C1CCC2C3CCC4CC(NCCN(CCN)CCN)CCC4(C)C3CC(O)C12C` (stereo not shown) [Claramine A29], the results for the minimum inhibitory concentration (MIC) in experiment [1] and in experiment [2] were 14 µg/mL (≈ 24.9 µM) and 56 µg/mL (≈ 99.5 µM), respectively. In [3], this molecule registered a concentration for half-maximal inhibition (IC50) of 141 µg/mL (≈ 250 µM).
For `COC(=O)CCC(C)C1CCC2C3C(O)CC4CC(NCCCNCCCN)CCC4(C)C3CC(O)C12C` (stereo not shown) [Claramine B02] the same measures were 7 µg/mL (≈ 13.1 µM), 13 µg/mL (≈ 24.3 µM) and 27 µg/mL (≈ 50.4 µM).
Turning to `CC(C)OC(=O)CCC(C)C1CCC2C3C(O)CC4CC(NCCCNCCCCNCCCN)CCC4(C)C3CC(O)C12C` (stereo not shown) [Claramine B12], the minimum inhibitory concentration (MIC) is 8 µg/mL (≈ 12.6 µM) in experiment [1]; 8 µg/mL (≈ 12.6 µM) in experiment [4]; 16 µg/mL (≈ 25.2 µM) in experiment [5]; 8 µg/mL (≈ 12.6 µM) in [2]; 4 µg/mL (≈ 6.3 µM) in [6]; 32 µg/mL (≈ 50.4 µM) in experiment [7]. For the same molecule, the MIC in experiment [8] came to 4 µg/mL (≈ 6.3 µM); in experiment [9] it was 62 µg/mL (≈ 97.6 µM). Also, in [3], the IC50 is 48 µg/mL (≈ 75.6 µM).
`CC(C)OC(=O)CCC(C)C1CCC2C3C(O)CC4CC(NCCCNCCCCN)CCC4(C)C3CC(O)C12C` (stereo not shown) [Claramine B14]: the minimal inhibitory concentration (MIC) in [1] stood at 14 µg/mL (≈ 24.2 µM); in experiment [4], 7 µg/mL (≈ 12.1 µM); in [5], 15 µg/mL (≈ 26 µM); in experiment [2] it was 7 µg/mL (≈ 12.1 µM); in experiment [6] it was 4 µg/mL (≈ 6.92 µM); in [7] it was 30 µg/mL (≈ 51.9 µM). Also, the MIC in experiment [8] was 4 µg/mL (≈ 6.92 µM); in experiment [9] it was 30 µg/mL (≈ 51.9 µM). The molecule also showed an IC50 in [3] of 67 µg/mL (≈ 116 µM).
As for `CC(C)OC(=O)CCC(C)C1CCC2C3C(O)CC4CC(NCCCNCCCN)CCC4(C)C3CC(O)C12C` (stereo not shown) [Claramine B15], the minimum inhibitory concentration (MIC) in experiment [1] turned out to be 14 µg/mL (≈ 24.8 µM); in [2], 28 µg/mL (≈ 49.7 µM). Further, it took 113 µg/mL (≈ 200 µM) to reach half-maximal inhibition in experiment [3] (IC50).
